The record followed here is patent publication US20080009418A1, “Selective Inhibitors” (Alchemia LTD., priority 2004, published 2008).

The target of test [1] is T1, Mouse urotensin (mUR2) (Mus musculus, UniProt Q8VIH9).
T1 construct: purchased Perkin Elmer Biosignal
T1 sequence (Q8VIH9 1-385): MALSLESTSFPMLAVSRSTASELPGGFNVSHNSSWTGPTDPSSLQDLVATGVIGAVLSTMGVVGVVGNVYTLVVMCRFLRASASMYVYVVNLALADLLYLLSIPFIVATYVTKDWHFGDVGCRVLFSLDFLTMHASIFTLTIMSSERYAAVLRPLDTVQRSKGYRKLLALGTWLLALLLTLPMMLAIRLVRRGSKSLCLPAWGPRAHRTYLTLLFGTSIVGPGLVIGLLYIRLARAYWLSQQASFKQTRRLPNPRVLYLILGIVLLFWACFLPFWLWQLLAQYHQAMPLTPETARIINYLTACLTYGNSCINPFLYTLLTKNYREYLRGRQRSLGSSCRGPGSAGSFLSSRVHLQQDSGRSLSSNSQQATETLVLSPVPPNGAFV
In words: Radioligand binding, mouse urotensin mUR2 membranes, FlashPlate, [125I]-Urotensin II. The settings on record: compound at 10 μM, [125I]-Urotensin II. The procedure, abridged:
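Cloned mouse urotensin (mUR2) receptor membranes from Perkin Elmer Biosignal were immobilized in FlashPlate microplates using a proprietary coating. Each well got 19.5 μl buffer, then 0.5 μl of DMSO, reference ligand, or compound. Adding 5 μl of [125I]-Urotensin II, diluted to 5× final concentration in binding buffer, started binding. Plates were sealed with TopSeal-A and incubated 1 hour at room temperature in the dark. Wells were counted for 30 seconds each on a TopCount after a 60-second delay, and percentage inhibition was calculated.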

The target in test [2] is T2, Human opioid (ORL1) (Homo sapiens, UniProt P41146).
T2 construct: purchased Perkin Elmer Biosignal
T2 sequence (P41146 whole entry): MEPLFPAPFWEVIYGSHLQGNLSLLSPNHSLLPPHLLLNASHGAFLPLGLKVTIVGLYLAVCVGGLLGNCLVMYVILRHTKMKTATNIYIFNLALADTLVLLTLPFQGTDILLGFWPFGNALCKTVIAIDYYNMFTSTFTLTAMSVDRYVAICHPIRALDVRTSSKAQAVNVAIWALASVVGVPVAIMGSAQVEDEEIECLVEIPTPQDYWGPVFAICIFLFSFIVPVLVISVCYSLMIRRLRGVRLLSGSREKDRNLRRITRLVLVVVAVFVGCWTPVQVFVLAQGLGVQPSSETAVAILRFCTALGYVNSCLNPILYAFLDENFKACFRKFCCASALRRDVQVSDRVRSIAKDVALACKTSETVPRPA
In words: Radioligand binding, human opioid ORL1 membranes, FlashPlate, [125I]-Nociceptin. The settings on record: compound at 10 μM, [125I]-Nociceptin. The procedure, abridged:
(§1)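 Cloned human receptor membranes were coated onto FlashPlate wells and incubated with radioligand and compound (added from a 0.5 mM DMSO daughter plate) for 1 hour at room temperature in the dark. Scintillation counting gave percent inhibition, with DMSO defining total and reference ligand defining non-specific binding.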

For test [3], the target named is T3, Human melanocortin (MC5) (Homo sapiens, UniProt P33032).
T3 construct: purchased Perkin Elmer Biosignal
T3 sequence (P33032 whole entry): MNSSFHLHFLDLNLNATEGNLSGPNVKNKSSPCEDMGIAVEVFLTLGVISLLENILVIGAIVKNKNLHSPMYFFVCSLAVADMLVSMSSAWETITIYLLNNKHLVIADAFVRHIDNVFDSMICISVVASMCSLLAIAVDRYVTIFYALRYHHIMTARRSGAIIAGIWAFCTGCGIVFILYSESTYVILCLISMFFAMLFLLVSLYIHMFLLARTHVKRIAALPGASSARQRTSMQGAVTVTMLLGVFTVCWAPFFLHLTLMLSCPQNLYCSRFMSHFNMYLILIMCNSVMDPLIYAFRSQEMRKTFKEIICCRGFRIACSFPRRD
The experiment in a line: Radioligand binding, human melanocortin MC5 membranes, FlashPlate, [125I]-NDP-αMSH. The settings on record: compound at 10 μM, [125I]-NDP-αMSH. The procedure, abridged:
as §1

In test [4] the target is T4, Human melanin-concentrating hormone (MCH1) (Homo sapiens, UniProt Q99705).
T4 construct: purchased Perkin Elmer Biosignal
T4 sequence (Q99705 whole entry): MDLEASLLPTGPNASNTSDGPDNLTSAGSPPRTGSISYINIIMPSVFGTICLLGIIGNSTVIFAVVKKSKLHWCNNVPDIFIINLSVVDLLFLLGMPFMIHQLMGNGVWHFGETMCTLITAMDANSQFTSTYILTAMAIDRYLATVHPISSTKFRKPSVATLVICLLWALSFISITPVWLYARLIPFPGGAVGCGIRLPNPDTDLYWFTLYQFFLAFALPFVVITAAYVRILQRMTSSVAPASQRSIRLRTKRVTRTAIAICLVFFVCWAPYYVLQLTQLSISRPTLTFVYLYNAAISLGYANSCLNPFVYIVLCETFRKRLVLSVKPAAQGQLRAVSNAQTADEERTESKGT
The experiment in a line: Radioligand binding, human melanin-concentrating hormone MCH1 membranes, FlashPlate, [125I]-S36057. The settings on record: compound at 10 μM; for A6: inhibition of radioligand binding, human melanin-concentrating hormone (MCH1): [125I]-S36057. The procedure, abridged:
as §1

Test [5] deals with T5, Human κ-Opioid (KOP) (Homo sapiens, UniProt P41145).
T5 construct: purchased Perkin Elmer Biosignal
T5 sequence (P41145 whole entry): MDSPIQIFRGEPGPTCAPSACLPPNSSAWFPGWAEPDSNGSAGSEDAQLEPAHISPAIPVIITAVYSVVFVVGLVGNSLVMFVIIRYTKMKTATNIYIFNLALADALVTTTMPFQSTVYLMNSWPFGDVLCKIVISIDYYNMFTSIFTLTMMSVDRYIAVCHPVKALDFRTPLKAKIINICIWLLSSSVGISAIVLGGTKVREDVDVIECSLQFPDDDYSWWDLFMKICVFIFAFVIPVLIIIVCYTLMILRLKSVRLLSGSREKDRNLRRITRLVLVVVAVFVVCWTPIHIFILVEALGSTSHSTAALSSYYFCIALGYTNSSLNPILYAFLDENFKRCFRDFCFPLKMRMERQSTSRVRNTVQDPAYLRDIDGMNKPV
In words: Radioligand binding, human κ-opioid (KOP) membranes, filtration, [3H]-Diprenorphine. The settings on record: compound at 10 μM, [3H]-Diprenorphine. The procedure, abridged:
(§2)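 Membranes from cloned human receptors were incubated with compound and radioligand for 1 hour at room temperature. Bound ligand was collected on 0.3% PEI-soaked filters, washed with cold 50 mM Tris-HCl pH 7.4, and counted by scintillation. Percent inhibition was computed against DMSO totals and reference-ligand nonspecific wells.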

Test [6] has as its target T6, Human neurokinin (NK1) (Homo sapiens, UniProt P25103).
T6 construct: purchased Perkin Elmer Biosignal
In words: Radioligand binding, human neurokinin NK1 membranes, filtration, [125I]-Substance P. The settings on record: compound at 10 μM, [125I]-Substance P. The procedure, abridged: as §2

Test [7] addresses T7, Human μ-opioid (MOP) (Homo sapiens, UniProt P35372).
T7 construct: purchased Perkin Elmer Biosignal
In words: Radioligand binding, human μ-opioid (MOP) membranes, FlashPlate, [3H]-Naloxone. The settings on record: compound at 10 μM, [3H]-Naloxone. The procedure, abridged: as §1

In test [8] the target is T8, Human δ-opioid (DOP) (Homo sapiens, UniProt P41143).
T8 construct: purchased Perkin Elmer Biosignal
T8 sequence (P41143 whole entry): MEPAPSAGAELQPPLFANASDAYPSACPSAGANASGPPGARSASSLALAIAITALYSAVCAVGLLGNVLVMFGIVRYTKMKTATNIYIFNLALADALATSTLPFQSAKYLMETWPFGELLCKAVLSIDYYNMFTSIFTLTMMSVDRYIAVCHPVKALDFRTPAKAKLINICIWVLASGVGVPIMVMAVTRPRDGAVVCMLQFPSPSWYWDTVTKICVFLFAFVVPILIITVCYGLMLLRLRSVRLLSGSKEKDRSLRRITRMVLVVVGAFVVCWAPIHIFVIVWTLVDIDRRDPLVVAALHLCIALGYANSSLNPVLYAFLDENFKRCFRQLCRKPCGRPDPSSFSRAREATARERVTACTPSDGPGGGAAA
The experiment in a line: Radioligand binding, human δ-opioid (DOP) membranes, FlashPlate, [3H]-Bremazocine. The settings on record: compound at 10 μM, [3H]-Bremazocine. The procedure, abridged: as §1

For test [9], the target named is T9, Human Melanocortin (MC4) (Homo sapiens, UniProt P32245).
T9 construct: purchased Perkin Elmer Biosignal
T9 sequence (P32245 whole entry): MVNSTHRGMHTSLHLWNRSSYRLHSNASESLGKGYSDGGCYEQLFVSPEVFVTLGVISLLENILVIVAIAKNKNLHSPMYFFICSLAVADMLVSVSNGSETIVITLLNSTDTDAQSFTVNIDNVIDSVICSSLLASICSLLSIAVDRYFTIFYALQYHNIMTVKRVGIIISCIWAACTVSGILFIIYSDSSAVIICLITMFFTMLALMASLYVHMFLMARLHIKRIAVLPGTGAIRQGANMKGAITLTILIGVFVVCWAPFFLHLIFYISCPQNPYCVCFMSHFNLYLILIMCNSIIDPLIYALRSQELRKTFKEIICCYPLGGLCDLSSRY
In words: Radioligand binding, human melanocortin MC4 membranes, FlashPlate, [125I]-NDP-αMSH. The settings on record: compound at 10 μM, [125I]-NDP-αMSH. The procedure, abridged: as §1

For test [10], the target named is T10, Human Melanocortin (MC3) (Homo sapiens, UniProt P41968).
T10 construct: purchased Perkin Elmer Biosignal
T10 sequence (P41968 whole entry): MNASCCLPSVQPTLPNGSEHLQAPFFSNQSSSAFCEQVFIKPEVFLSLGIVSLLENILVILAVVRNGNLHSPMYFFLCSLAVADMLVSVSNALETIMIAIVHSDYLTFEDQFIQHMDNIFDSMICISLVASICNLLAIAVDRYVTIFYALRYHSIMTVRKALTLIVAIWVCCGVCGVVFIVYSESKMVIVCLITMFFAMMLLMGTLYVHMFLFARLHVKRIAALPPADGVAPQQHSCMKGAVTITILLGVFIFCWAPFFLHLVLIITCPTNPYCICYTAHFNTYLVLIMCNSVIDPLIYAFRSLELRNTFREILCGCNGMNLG
The experiment in a line: Radioligand binding, human melanocortin MC3 membranes, FlashPlate, [125I]-NDP-αMSH. The settings on record: compound at 10 μM, [125I]-NDP-αMSH. The procedure, abridged:
as §1

For test [11], the target named is T11, Human neuropeptide Y (NPY-Y1) (Homo sapiens, UniProt P25929).
T11 construct: purchased Perkin Elmer Biosignal
T11 sequence (P25929 1-384): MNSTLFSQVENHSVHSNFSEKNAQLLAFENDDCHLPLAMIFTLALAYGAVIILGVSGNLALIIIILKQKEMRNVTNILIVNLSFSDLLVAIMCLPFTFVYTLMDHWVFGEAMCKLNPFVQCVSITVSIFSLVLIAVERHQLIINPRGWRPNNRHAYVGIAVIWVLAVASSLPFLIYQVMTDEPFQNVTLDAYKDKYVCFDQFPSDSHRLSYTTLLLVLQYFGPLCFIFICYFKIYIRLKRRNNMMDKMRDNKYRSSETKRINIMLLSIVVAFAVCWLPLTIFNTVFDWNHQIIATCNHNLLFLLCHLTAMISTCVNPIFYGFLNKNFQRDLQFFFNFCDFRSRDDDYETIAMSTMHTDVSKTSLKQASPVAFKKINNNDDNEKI
The experiment in a line: Radioligand binding, human neuropeptide Y NPY-Y1 membranes, FlashPlate, [125I]-PYY. The settings on record: compound at 10 μM, [125I]-PYY. The procedure, abridged:
as §1

T6 sequence (P25103 whole entry): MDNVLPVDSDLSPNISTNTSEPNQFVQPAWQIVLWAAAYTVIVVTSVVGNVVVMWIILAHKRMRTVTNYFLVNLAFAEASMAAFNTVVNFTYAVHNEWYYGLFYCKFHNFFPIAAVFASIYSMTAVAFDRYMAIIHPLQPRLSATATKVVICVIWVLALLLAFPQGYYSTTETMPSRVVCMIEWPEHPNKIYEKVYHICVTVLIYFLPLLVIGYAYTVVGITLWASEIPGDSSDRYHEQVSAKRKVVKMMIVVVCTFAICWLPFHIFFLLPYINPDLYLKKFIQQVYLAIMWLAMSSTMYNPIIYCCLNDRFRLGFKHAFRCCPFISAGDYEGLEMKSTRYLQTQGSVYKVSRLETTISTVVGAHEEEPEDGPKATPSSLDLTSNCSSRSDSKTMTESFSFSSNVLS
T7 sequence (P35372 whole entry): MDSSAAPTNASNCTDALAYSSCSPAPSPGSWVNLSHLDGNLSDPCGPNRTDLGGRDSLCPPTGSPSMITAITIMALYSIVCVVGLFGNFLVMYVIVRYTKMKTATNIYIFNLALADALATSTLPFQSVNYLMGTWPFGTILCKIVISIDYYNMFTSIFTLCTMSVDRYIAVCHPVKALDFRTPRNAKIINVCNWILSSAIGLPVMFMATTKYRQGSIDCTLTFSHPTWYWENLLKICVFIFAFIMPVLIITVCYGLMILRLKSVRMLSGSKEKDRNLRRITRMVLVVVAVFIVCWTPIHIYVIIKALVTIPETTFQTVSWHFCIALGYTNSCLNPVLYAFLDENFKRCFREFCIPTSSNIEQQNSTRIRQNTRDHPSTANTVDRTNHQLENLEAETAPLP

Regarding `COC[C@H]1OC(OCc2ccc(-c3ccccc3)cc2)[C@H](NC(=O)CCCNC(=N)N)[C@@H](OCc2ccc(-c3ccccc3)cc2)[C@@H]1O` (single isomer, unassigned) [compound 336], the “A11: inhibition of radioligand binding, mouse urotensin (mUR2)” value in test [1] is listed as “− (“−” indicates less than 50% inhibition at 10 μM)”. The “A10: inhibition of radioligand binding, human opioid (ORL1)” value in test [2] is given as “− (“−” indicates less than 50% inhibition at 10 μM)”. Besides, the “A5: inhibition of radioligand binding, human melanocortin (MC5)” value in [3] was “+ (“+” indicates greater than 50% inhibition at 10 μM)”. The “A6: inhibition of radioligand binding, human melanin-concentrating hormone (MCH1)” value in test [4] is listed as “+ (“+” indicates greater than 50% inhibition at 10 μM)”. Also, the “A2: inhibition of radioligand binding, human κ-opioid (KOP)” value in test [5] (10 µM) is recorded as “− (“−” indicates less than 50% inhibition at 10 μM)”. Further, in [6], the “A8: inhibition of radioligand binding, human neurokinin (NK1)” value is “+ (“+” indicates greater than 50% inhibition at 10 μM)”. Besides, in [7] (10 µM), the “A7: inhibition of radioligand binding, human μ-opioid (MOP)” value is given as “− (“−” indicates less than 50% inhibition at 10 μM)”. Also, the “A1: inhibition of radioligand binding, human δ-opioid (DOP)” value in [8] (10 µM) is recorded as “− (“−” indicates less than 50% inhibition at 10 μM)”. In addition, in [9], the “A4: inhibition of radioligand binding, human melanocortin (MC4)” value was “+ (“+” indicates greater than 50% inhibition at 10 μM)”. Also, the “A3: inhibition of radioligand binding, human melanocortin (MC3)” value in [10] (10 µM) is given as “− (“−” indicates less than 50% inhibition at 10 μM)”. Moreover, the “A9: inhibition of radioligand binding, human neuropeptide Y (NPY-Y1)” value in test [11] is given as “− (“−” indicates less than 50% inhibition at 10 μM)”.
As to `COCC1OC(OCc2ccc3ccccc3c2)C(NC(=O)CCCN)C(OCc2ccccc2)C1O` (centres unmarked) [compound 233], the “A11: inhibition of radioligand binding” value in [1] (FlashPlate) is “− (“−” indicates less than 50% inhibition at 10 μM)”. In test [2] (FlashPlate), the “A10: inhibition of radioligand binding” value is on record as “− (“−” indicates less than 50% inhibition at 10 μM)”. Also, the “A5: inhibition of radioligand binding” value in [3] (FlashPlate) is “− (“−” indicates less than 50% inhibition at 10 μM)”. In test [4] ([125I]-S36057, FlashPlate), the “A6: inhibition of radioligand binding” value is on record as “− (“−” indicates less than 50% inhibition at 10 μM)”. Also, the “A2: inhibition of radioligand binding” value in [5] (filtration) was “− (“−” indicates less than 50% inhibition at 10 μM)”. Further, the “A8: inhibition of radioligand binding” value in [6] (filtration) was “+ (“+” indicates greater than 50% inhibition at 10 μM)”. The “A7: inhibition of radioligand binding” value in test [7] (FlashPlate) was “− (“−” indicates less than 50% inhibition at 10 μM)”. Besides, the “A1: inhibition of radioligand binding” value in [8] (FlashPlate) is “− (“−” indicates less than 50% inhibition at 10 μM)”. In test [9] (FlashPlate), the “A4: inhibition of radioligand binding” value was “− (“−” indicates less than 50% inhibition at 10 μM)”. For the same compound, the “A3: inhibition of radioligand binding” value in test [10] (FlashPlate) is given as “− (“−” indicates less than 50% inhibition at 10 μM)”. The “A9: inhibition of radioligand binding” value in test [11] (FlashPlate) is listed as “− (“−” indicates less than 50% inhibition at 10 μM)”.
With `CSC1OC(COCc2cccc(N)c2)C(O)C(OCc2ccc(Cl)cc2)C1NC(=O)Cc1ccccc1` (centres unmarked) [compound 328], the “A11: inhibition of radioligand binding, mouse urotensin (mUR2)” value in test [1] is reported as “− (“−” indicates less than 50% inhibition at 10 μM)”. In addition, the “A10: inhibition of radioligand binding, human opioid (ORL1)” value in [2] is recorded as “− (“−” indicates less than 50% inhibition at 10 μM)”. Further, in [3], the “A5: inhibition of radioligand binding, human melanocortin (MC5)” value is “− (“−” indicates less than 50% inhibition at 10 μM)”. Further, in test [4], the “A6: inhibition of radioligand binding, human melanin-concentrating hormone (MCH1)” value is “− (“−” indicates less than 50% inhibition at 10 μM)”. Also, the “A2: inhibition of radioligand binding, human κ-opioid (KOP)” value in test [5] is reported as “− (“−” indicates less than 50% inhibition at 10 μM)”. In addition, the “A8: inhibition of radioligand binding, human neurokinin (NK1)” value in test [6] was “+ (“+” indicates greater than 50% inhibition at 10 μM)”. For the same compound, the “A7: inhibition of radioligand binding, human μ-opioid (MOP)” value in test [7] was “− (“−” indicates less than 50% inhibition at 10 μM)”. For the same compound, in test [8], the “A1: inhibition of radioligand binding, human δ-opioid (DOP)” value was “− (“−” indicates less than 50% inhibition at 10 μM)”. The “A4: inhibition of radioligand binding, human melanocortin (MC4)” value in test [9] is “− (“−” indicates less than 50% inhibition at 10 μM)”. Also, the “A3: inhibition of radioligand binding, human melanocortin (MC3)” value in [10] is “− (“−” indicates less than 50% inhibition at 10 μM)”. The “A9: inhibition of radioligand binding, human neuropeptide Y (NPY-Y1)” value in [11] is “− (“−” indicates less than 50% inhibition at 10 μM)”.
As for `NCCC(=O)NC1C(OCc2ccc(Cl)cc2)OC(COCc2ccc3ccccc3c2)C(O)C1OCc1ccc(Cl)cc1` (single isomer, unassigned) [compound 472], in test [1] (mouse mUR2 membranes), the “A11: inhibition of radioligand binding” value is given as “− (“−” indicates less than 50% inhibition at 10 μM)”. The “A10: inhibition of radioligand binding” value in [2] (human ORL1 membranes) is listed as “− (“−” indicates less than 50% inhibition at 10 μM)”. The “A5: inhibition of radioligand binding” value in [3] (human MC5 membranes) was “+ (“+” indicates greater than 50% inhibition at 10 μM)”. Moreover, the “A6: inhibition of radioligand binding” value in test [4] ([125I]-S36057, human MCH1 membranes, 10 µM) was “+ (“+” indicates greater than 50% inhibition at 10 μM)”. Besides, the “A2: inhibition of radioligand binding” value in test [5] (human KOP membranes) is “− (“−” indicates less than 50% inhibition at 10 μM)”. For the same compound, the “A8: inhibition of radioligand binding” value in test [6] (human NK1 membranes) was “+ (“+” indicates greater than 50% inhibition at 10 μM)”. Further, the “A7: inhibition of radioligand binding” value in [7] (human MOP membranes) is given as “− (“−” indicates less than 50% inhibition at 10 μM)”. Besides, the “A1: inhibition of radioligand binding” value in test [8] (human DOP membranes) is given as “− (“−” indicates less than 50% inhibition at 10 μM)”. In test [9] (human MC4 membranes, 10 µM), the “A4: inhibition of radioligand binding” value is “+ (“+” indicates greater than 50% inhibition at 10 μM)”. Also, the “A3: inhibition of radioligand binding” value in test [10] (human MC3 membranes) was “+ (“+” indicates greater than 50% inhibition at 10 μM)”. In addition, the “A9: inhibition of radioligand binding” value in test [11] (human NPY-Y1 membranes) is listed as “− (“−” indicates less than 50% inhibition at 10 μM)”.
